The record followed here is BindingDB's records for doi:10.1021/jm401195n (Fudan University, 2013).

This assay addresses Indoleamine 2,3-dioxygenase 1 (Homo sapiens, UniProt P14902). In words: Inhibition of human IDO1 expressed in HEK293 cells assessed as kynurenine release after 5 hrs by spectrophotometry.

Indoleamine 2,3-dioxygenase 1, sequence (P14902 whole entry): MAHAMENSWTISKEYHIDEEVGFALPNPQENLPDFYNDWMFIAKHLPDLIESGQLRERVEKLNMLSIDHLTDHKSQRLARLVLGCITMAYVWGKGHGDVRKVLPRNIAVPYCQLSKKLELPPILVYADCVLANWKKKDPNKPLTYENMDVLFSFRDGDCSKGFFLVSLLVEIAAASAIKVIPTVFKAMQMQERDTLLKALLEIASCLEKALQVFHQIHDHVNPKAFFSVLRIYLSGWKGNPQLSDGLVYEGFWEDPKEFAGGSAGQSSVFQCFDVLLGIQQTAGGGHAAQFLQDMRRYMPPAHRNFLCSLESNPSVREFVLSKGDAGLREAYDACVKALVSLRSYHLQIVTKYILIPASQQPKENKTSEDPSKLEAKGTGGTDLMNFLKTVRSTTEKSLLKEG

On to `O=C1c2cc([N+](=O)[O-])ccc2-n2c1nc1ccccc1c2=O`, for which the half-maximal inhibitory concentration (IC50) (commonly the point on the concentration scale where inhibition reaches its midpoint) is 0.018 nM.
